Reference: patent US20130053435A1, “Methods of Treating Alcohol Intoxication, Alcohol Use Disorders and Alcohol Abuse Which Comprises the Administration of Dihydromyricetin” (priority 2011, published 2013)

Test system: T1, GABAARs
T1 construct: rows headed: effect on GABAAR-currents; effect on GABAAR-currents; other: zolpidem 0.3 μM, DGCs of EtOH group
Experiment: Whole-cell patch-clamp, DGCs in hippocampal slices 48 hr after in vivo treatment
Assay type: cell-based, rat
Conditions: zolpidem 0.3 μM
Procedure: Transverse slices (400 μm) of dorsal hippocampus were obtained with a Vibratome (VT 100, Technical Products International, St. Louis, Mo.) and standard techniques known in the art. Slices were continuously perfused with artificial cerebrospinal fluid (ACSF). See Liang, J., et al. (2007) J Neurosci 27:12367-12377.
Whole-cell patch-clamp recordings were obtained at 34±0.5° C. from cells located in the DG layer at a holding potential of −70 mV, during perfusion with artificial cerebrospinal fluid (ACSF, 125 mM NaCl, 2.5 mM KCl, 2 mM CaCl2, 2 mM MgCl2, 26 mM NaHCO3, and 10 mM D-glucose). The ACSF was continuously bubbled with 95% O2-5% CO2 to ensure adequate oxygenation of slices and a pH of 7.4. Patch electrodes were pulled from thin-wall borosilicate glass pipettes with resistances of 7.5-9 MΩ and were filled with pipette solution (i.e. 137 mM CsCl, 2 mM MgCl2, 1 mM CaCl2, 11 mM EGTA, 10 mM HEPES and 3 mM ATP, pH adjusted to 7.30 with CsOH). Signals were recorded in voltage-clamp mode with a […] amplifier (Molecular Devices, Sunnyvale, Calif.). Whole cell access resistances were in the range of <25 MΩ before electrical compensation by about 70%. During voltage-clamp recordings, access resistance was monitored by measuring the size of the capacitative transient in response to a 5 mV step command and the data were abandoned if changes >20% were encountered. At least 10 min was allowed for equilibration of the pipette solution with the intracellular milieu before commencing mIPSC recordings. Intracellular signal was low-pass filtered at 3 kHz and data were acquired with Digidata 1440A and software CLAMPEX 10 (Molecular Devices) at a sampling frequency of 20 kHz.
Pharmacologically-isolated GABAAR-mediated mIPSCs were recorded as previously described (Liang (2007) and Shen (2011)). […] Data were analyzed using the Clampfit (Version 9.0, Molecular Devices) and the MiniAnalysis Program (versions 6.0.7, Synaptosoft, Decatur, Ga.).
The MiniAnalysis program (Synaptosoft, Decatur, Ga.) was used to analyze mIPSCs. Itonic is the averaged baseline currents of a given recording period. Itonic amplitude was calculated as the difference between the holding currents measured before and after picrotoxin (100 μM) or bicuculline (10 μM). See Wei, W., et al. (2004) J Neurosci 24, 8379-8382; Liang (2007); and Shen (2011). Briefly, the recordings were low-pass filtered off-line (Clampfit software) at 2 kHz. The mIPSCs were detected (Mini Analysis Program, version 6.0.7) with threshold criteria of 8 pA amplitude and 20 pA*ms charge transfer. The frequency of mIPSCs was determined from all automatically detected events in a given 100 s recording period. For kinetic analysis, only single event mIPSCs with a stable baseline, sharp rising phase (10 to 90% rise time), and exponential decay were chosen during visual inspection of the recording trace. Double and multiple peak mIPSCs were excluded. At least 100 individual mIPSC events were recorded under each experimental condition. The mIPSC kinetics was obtained from analysis of the averaged chosen single events aligned with half rise time in each cell. Decay time constants were obtained by fitting a double exponential to the falling phase of the averaged mIPSCs. Itonic magnitudes were obtained from the averaged baseline current of a given recording period. Itonic amplitude was calculated as the difference between the holding currents measured before and after the application of picrotoxin (50 μM) or bicuculline (10 μM). See Liang J et al (2007); Shen (2011); Hamann (2002); and Mangan P S, et al. (2005) Mol Pharmacol 67(3):775-788. The investigator performing the recordings and mIPSC analysis was blind to the treatment (vehicle, EtOH, E+D, or D) that the rats received.
After 48 hr withdrawal, whole-cell GABAAR-mediated currents were recorded on DGCs in hippocampal slices. In the vehicle group, bath application of EtOH (60 mM) enhanced Itonic from 28.8±3.1 to 62.1±3.3 pA (FIG. 13, panels A, G). […]

What does the source list for Cc1ccc(-c2nc3ccc(C)cn3c2CC(=O)N(C)C)cc1 [Zolpidem, zolpidem, reference compound]?
effect on GABAAR-currents (DGCs of DHM group as in vehicle group): potentiation; effect on GABAAR-currents (DGCs of EtOH group): did not affect GABAAR-currents
